From ChEMBL document CHEMBL1133817, “Discovery of novel, orally active dual NK1/NK2 antagonists” (Bioorg Med Chem Lett, 2001)
Activity calls are given as the source filed them. The calls are words filed in the database; no cut-off is given here.

Assays:
[1] = target: T1, Substance-K receptor (Oryctolagus cuniculus) (UniProt P79218); assay: Binding constant towards Tachykinin receptor 2 using BANK as agonist on rabbit pulmonary artery tissues.
T1 sequence (whole entry): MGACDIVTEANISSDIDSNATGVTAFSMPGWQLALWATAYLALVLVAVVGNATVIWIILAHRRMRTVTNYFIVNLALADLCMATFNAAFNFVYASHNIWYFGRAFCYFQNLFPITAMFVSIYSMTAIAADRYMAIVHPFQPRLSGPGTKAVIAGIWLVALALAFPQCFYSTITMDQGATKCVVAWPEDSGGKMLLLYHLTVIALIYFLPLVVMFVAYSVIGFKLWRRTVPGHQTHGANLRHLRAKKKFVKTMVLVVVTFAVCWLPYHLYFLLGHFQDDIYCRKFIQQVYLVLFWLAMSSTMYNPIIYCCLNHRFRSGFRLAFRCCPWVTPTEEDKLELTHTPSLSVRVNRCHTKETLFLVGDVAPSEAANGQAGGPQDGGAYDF

[2] = tested on: Substance-P receptor (Oryctolagus cuniculus); assay: Binding constant towards tachykinin receptor 1 using ASMSP as agonist on rabbit pulmonary artery tissues.
[3] = target: T1, Substance-K receptor (Oryctolagus cuniculus); assay: Binding constant towards Tachykinin receptor 2 using BANK as agonist on rabbit pulmonary artery tissues; NA is not active
[4] = target: T2, Substance-K receptor (Homo sapiens) (UniProt P21452); settings: Bronchus
T2 sequence (whole entry): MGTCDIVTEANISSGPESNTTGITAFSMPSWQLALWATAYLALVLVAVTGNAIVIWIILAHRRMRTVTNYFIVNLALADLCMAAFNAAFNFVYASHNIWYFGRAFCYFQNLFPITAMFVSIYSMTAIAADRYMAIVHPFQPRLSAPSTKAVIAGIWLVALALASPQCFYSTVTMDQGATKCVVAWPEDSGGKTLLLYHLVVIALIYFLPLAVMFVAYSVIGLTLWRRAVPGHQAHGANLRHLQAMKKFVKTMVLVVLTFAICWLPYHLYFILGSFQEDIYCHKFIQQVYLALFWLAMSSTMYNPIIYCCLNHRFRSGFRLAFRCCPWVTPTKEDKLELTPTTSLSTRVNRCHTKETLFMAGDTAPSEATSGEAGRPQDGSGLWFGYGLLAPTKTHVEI
Description: Binding constant towards Tachykinin receptor 2 using NKA as agonist on human bronchus

Substance-P receptor [5] = target: T3, Substance-P receptor (Homo sapiens, UniProt P25103); settings: Artery
T3 sequence (P25103 whole entry): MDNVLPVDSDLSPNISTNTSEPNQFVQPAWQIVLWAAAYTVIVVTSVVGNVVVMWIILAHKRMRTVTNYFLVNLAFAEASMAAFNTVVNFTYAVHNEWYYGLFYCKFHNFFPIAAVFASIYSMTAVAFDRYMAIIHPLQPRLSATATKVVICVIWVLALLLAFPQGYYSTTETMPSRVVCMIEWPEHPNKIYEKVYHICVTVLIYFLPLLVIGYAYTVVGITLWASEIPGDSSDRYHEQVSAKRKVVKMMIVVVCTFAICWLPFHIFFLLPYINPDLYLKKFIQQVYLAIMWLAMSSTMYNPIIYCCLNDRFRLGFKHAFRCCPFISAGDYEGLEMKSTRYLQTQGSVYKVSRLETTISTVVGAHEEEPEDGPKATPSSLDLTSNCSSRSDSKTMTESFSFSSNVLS
Description: (§1) Binding constant towards Tachykinin receptor 1 using ASMSP as agonist on human pulmonary artery tissues

Substance-P receptor [6] = target: T3, Substance-P receptor; settings: Oryctolagus cuniculus; Artery
Description: Binding constant towards Tachykinin receptor 1 using ASMSP as agonist on rabbit pulmonary artery tissues; NA is not active

Substance-P receptor [7] = target: T3, Substance-P receptor; assay: Binding affinity against human cloned Tachykinin receptor 1 expressed in MEL cells; type: cell-based
Substance-P receptor [8] = target: T3, Substance-P receptor; settings: Artery; remark: listed apart in the source
Description: as §1

Neuromedin-K receptor = target: T4, Neuromedin-K receptor (Homo sapiens, UniProt P29371); assay: Binding affinity against human cloned Tachykinin receptor 3 expressed in MEL cells; type: cell-based
T4 sequence (P29371 whole entry): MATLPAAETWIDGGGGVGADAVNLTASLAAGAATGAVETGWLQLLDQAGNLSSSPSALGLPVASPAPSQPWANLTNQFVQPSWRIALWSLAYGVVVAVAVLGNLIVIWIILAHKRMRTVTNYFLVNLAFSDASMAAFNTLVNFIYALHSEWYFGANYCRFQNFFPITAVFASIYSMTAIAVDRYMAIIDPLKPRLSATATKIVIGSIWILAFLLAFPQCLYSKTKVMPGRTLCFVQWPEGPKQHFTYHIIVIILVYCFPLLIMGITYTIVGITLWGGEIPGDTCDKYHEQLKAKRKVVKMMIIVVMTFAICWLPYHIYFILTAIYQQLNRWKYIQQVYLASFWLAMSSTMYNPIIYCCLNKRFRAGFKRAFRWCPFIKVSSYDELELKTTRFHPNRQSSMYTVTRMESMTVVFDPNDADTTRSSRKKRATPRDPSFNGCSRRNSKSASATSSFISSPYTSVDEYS

Substance-K receptor = target: T5, Substance-K receptor (Homo sapiens, UniProt P21452); assay: Binding affinity against human cloned Tachykinin receptor 2 expressed in MEL cells; type: cell-based
T5 sequence (P21452 whole entry): T2 sequence (whole entry)

SMILES	pKB [1]	pKB [2]	further results
CC(=O)NC1(c2ccccc2)CCN(CC[C@H](CN(C)C(=O)c2cccc3ccccc23)c2ccc(Cl)c(Cl)c2)CC1	8.18	7.18	
CN(C[C@@H](CCN1CCC(c2ccccc2[S+](C)[O-])CC1)c1ccc(Cl)c(Cl)c1)C(=O)c1cc(CC#N)cc2ccccc12 (some centres not stated)	6.99	8.42	
CN(C[C@@H](CCN1CCC(c2ccccc2[S+](C)[O-])CC1)c1ccc(Cl)c(Cl)c1)C(=O)c1cc(S(N)(=O)=O)cc2ccccc12 (some centres not stated)	7.02	7.54	
CN(C[C@@H](CCN1CCC(c2ccccc2[S+](C)[O-])CC1)c1ccc(Cl)c(Cl)c1)C(=O)c1cccc2ccccc12 (some centres not stated)	8.18	7.89	
CN(C[C@@H](CCN1CCC(c2ccccc2C(F)(F)F)CC1)c1ccc(Cl)c(Cl)c1)C(=O)c1cccc2ccccc12		6.03	pKB [3]: inactive
CN(C[C@@H](CCN1CCC(c2ccccc2[S+](C)[O-])CC1)c1ccc(Cl)c(Cl)c1)C(=O)c1cc([N+](=O)[O-])cc2ccccc12 (some centres not stated)	9.03	8.16	
CN(C[C@@H](CCN1CCC(c2ccccc2[S+](C)[O-])CC1)c1ccc(Cl)c(Cl)c1)C(=O)c1cc(C(=O)O)cc2ccccc12 (some centres not stated)	6.86	5.68	
CN(C[C@@H](CCN1CCC(N2C(=O)CCCC2=O)CC1)c1ccc(Cl)c(Cl)c1)C(=O)c1cccc2ccccc12		6.28	pKB [3]: inactive
CN(C[C@@H](CCN1CCC(c2ccccc2[S+](C)[O-])CC1)c1ccc(Cl)c(Cl)c1)C(=O)c1cc(Cl)cc2ccccc12 (some centres not stated)	7.1	7.15	
CN(C[C@@H](CCN1CCC(c2ccccc2[S+](C)[O-])CC1)c1ccc(Cl)c(Cl)c1)C(=O)c1cccc2cc(C#N)ccc12 (some centres not stated)	7.62	8.55	
COc1cc(C(=O)N(C)C[C@@H](CCN2CCC(c3ccccc3[S+](C)[O-])CC2)c2ccc(Cl)c(Cl)c2)c2ccccc2c1 (some centres not stated)	7.7	7.95	
CN(C[C@@H](CCN1CCC(c2ccccc2[S+](C)[O-])CC1)c1ccc(Cl)c(Cl)c1)C(=O)c1cc(F)cc2ccccc12 (some centres not stated)	8.15	7.9	
CN(C[C@@H](CCN1CCC(c2cccnc2[S+](C)[O-])CC1)c1ccc(Cl)c(Cl)c1)C(=O)c1cccc2ccccc12 (some centres not stated)	7.82	7.69	
CN(C[C@@H](CCN1CCC(c2ccccc2[S@+](C)[O-])CC1)c1ccc(Cl)c(Cl)c1)C(=O)c1cc(C#N)cc2ccccc12 (stereo in doubt)	8.26		pKB [4]: 7.5; pKB (Substance-P receptor [5]): 8.9
CC(=O)NC1(c2ccccc2)CCN(CC[C@H](CN(C)C(=O)c2ccccc2)c2ccc(Cl)c(Cl)c2)CC1	9.3		
CCN1C(=O)c2ccccc2[C@H]1[C@@H](CCN1CCC(c2ccccc2[S@+](C)[O-])CC1)c1ccc(Cl)c(Cl)c1	8.8		
CNC(=O)C1(N2CCCCC2=O)CCN(CC[C@H](CN(C)C(=O)c2cccc3ccccc23)c2ccc(Cl)c(Cl)c2)CC1	8.44	6.42	
CN(C)C(=O)C1(N2CCCCC2=O)CCN(CC[C@H](CN(C)C(=O)c2cccc3ccccc23)c2ccc(Cl)c(Cl)c2)CC1	8.23	6.78	
CN(C[C@@H](CCN1CCC(c2ccccc2[S+](C)[O-])CC1)c1ccc(Cl)c(Cl)c1)C(=O)c1cccc2ccc(C#N)cc12 (some centres not stated)	8.51	8.13	
CN(C[C@@H](CCN1CCC(c2ccccc2[S+](C)[O-])CC1)c1ccc(Cl)c(Cl)c1)C(=O)c1cc(Br)cc2ccccc12 (some centres not stated)	7.67	8.15	

SMILES	pKB [1]	pKB [2]	further results
CN(C[C@H](CCN1CCC(c2ccccc2[S+](C)[O-])CC1)c1ccc(Cl)c(Cl)c1)C(=O)c1cc(C#N)cc2ccccc12 (some centres not stated)	7.1		pKB (Substance-P receptor [6]): inactive
CNC(=O)C1(N2CCCNC2=O)CCN(CC[C@H](CN(C)C(=O)c2cccc3ccccc23)c2ccc(Cl)c(Cl)c2)CC1	8.41	6.82	
C#Cc1cc(C(=O)N(C)C[C@@H](CCN2CCC(c3ccccc3[S+](C)[O-])CC2)c2ccc(Cl)c(Cl)c2)c2ccccc2c1 (some centres not stated)	7.44	7.71	
CN(C[C@@H](CCN1CCC(c2ccccn2)CC1)c1ccc(Cl)c(Cl)c1)C(=O)c1cccc2ccccc12		6.98	pKB [3]: inactive
CN(C[C@@H](CCN1CCC(c2ccc([S+](C)[O-])cc2)CC1)c1ccc(Cl)c(Cl)c1)C(=O)c1cccc2ccccc12 (some centres not stated)	6.76	7.4	
CN(C[C@@H](CCN1CCC2(CC1)C[S+]([O-])c1ccccc12)c1ccc(Cl)c(Cl)c1)C(=O)c1cccc2ccccc12 (some centres not stated)	8.1	6.98	
CN(C[C@@H](CCN1CCC(c2ccccc2[S+](C)[O-])CC1)c1ccc(Cl)c(Cl)c1)C(=O)c1cc(C(F)(F)F)cc2ccccc12 (some centres not stated)	6.45	7.84	
C=C(C)c1cc(C(=O)N(C)C[C@@H](CCN2CCC(c3ccccc3[S+](C)[O-])CC2)c2ccc(Cl)c(Cl)c2)c2ccccc2c1 (some centres not stated)	7.24	7.24	
CN(C[C@@H](CCN1CCC(c2ccccc2[S@+](C)[O-])CC1)c1ccc(Cl)c(Cl)c1)C(=O)c1cc(C#N)cc2ccccc12 (stereo in doubt; 4b)	8.39		
CN(C[C@@H](CCN1CCC(O)(c2ccc([S+](C)[O-])cc2)CC1)c1ccc(Cl)c(Cl)c1)C(=O)c1cccc2ccccc12 (some centres not stated)	7.54	6.92	
CN(C[C@@H](CCN1CCC(c2ccccc2S(C)(=O)=O)CC1)c1ccc(Cl)c(Cl)c1)C(=O)c1cccc2ccccc12	7.55	7.81	
CN(C)C(=O)c1cc(C(=O)N(C)C[C@@H](CCN2CCC(c3ccccc3[S+](C)[O-])CC2)c2ccc(Cl)c(Cl)c2)c2ccccc2c1 (some centres not stated)	7.31	5.17	
CN(C[C@@H](CCN1CCC(c2ccccc2[S+](C)[O-])CC1)c1ccc(Cl)c(Cl)c1)C(=O)c1cc(S(C)(=O)=O)cc2ccccc12 (some centres not stated)	7.35	7.43	
CN(C[C@@H](CCN1CCC(c2ccccc2[S+](C)[O-])CC1)c1ccc(Cl)c(Cl)c1)C(=O)c1ccc(C#N)c2ccccc12 (some centres not stated)	7.34	6.31	
Cc1cc(C(=O)N(C)C[C@@H](CCN2CCC(c3ccccc3[S+](C)[O-])CC2)c2ccc(Cl)c(Cl)c2)c2ccccc2c1 (some centres not stated)	7.29	8.03	
CC(=O)c1cc(C(=O)N(C)C[C@@H](CCN2CCC(c3ccccc3[S+](C)[O-])CC2)c2ccc(Cl)c(Cl)c2)c2ccccc2c1 (some centres not stated)	7.17	7.41	
COc1cc(C(=O)N2CC[C@](CCN3CCC(C(N)=O)(c4ccccc4)CC3)(c3ccc(Cl)c(Cl)c3)C2)cc(OC)c1OC	6.7		pKB [4]: 6.4; Ki (Substance-P receptor [7]): 0.3 nM; pKB (Substance-P receptor [8]): 6.9; Ki (Neuromedin-K receptor): 200 nM; Ki (Substance-K receptor): 1 nM
CN(C[C@@H](CCN1CCC(N2CCCNC2=O)CC1)c1ccc(Cl)c(Cl)c1)C(=O)c1cccc2ccccc12	7.92	7.34	
CN(C[C@@H](CCN1CCC(O)(c2ccccc2[S+](C)[O-])CC1)c1ccc(Cl)c(Cl)c1)C(=O)c1cccc2ccccc12 (some centres not stated)	7.32	7.3	
CNC(=O)c1ccccc1C1CCN(CC[C@H](CN(C)C(=O)c2cccc3ccccc23)c2ccc(Cl)c(Cl)c2)CC1	8.21	7.3	
